According to patent US20140357512A1, “HISTONE DEACETYLASE (HDAC) BIOMARKERS IN MULTIPLE MYELOMA” (priority 2013, published 2014):

Test system: human myeloma cell line MM.1S
Assay: SILAC acetylated-lysine peptide profiling, HDAC inhibitor vs DMSO (light/heavy ratio)
Type: cell-based
From the text: An embodiment of the invention comprises utilizing the SILAC method in order to quantitate changes in protein expression between two or more populations of cells. The SILAC method is a technique based on mass spectrometry that detects differences in protein abundance among samples using non-radioactive isotopic labeling. The SILAC method is known in the art, and described in detail in Ong et al., “Stable Isotope Labeling by Amino Acids in Cell Culture, SILAC, as a Simple and Accurate Approach to Expression Proteomics”, Molecular & Cellular Proteomics, vol. 1, pp. 376-386 (2002), which is incorporated herein by reference in its entirety.
Briefly, the SILAC method involves growing two populations of cells in cell culture. The first population of cells is grown in growth media containing normal amino acids (“normal media”). The second population of cells is grown in media lacking a standard essential amino acid (such as lysine), but is then supplemented with a non-radioactive, isotopically labeled form of that essential amino acid (such as lysine labeled with ^13C atoms, rather than normal ^12C atoms), which is called “heavy media”. When the two populations of cells are each growing in the medium, they incorporate the amino acids into all of their proteins. The growth of cells maintained in the heavy media is no different from that in normal media. All peptides containing the heavy amino acids are heavier than their normal counterparts. The cells from each of the two populations of cells are lysed. The lysates from each of the two cell populations are then combined. The combined cell lysates are then analyzed by mass spectrometry. Pairs of chemically identical peptides of different stable isotope composition can be differentiated in a mass spectrometer due to their difference in mass. The ratio of peak intensities in the mass spectrum for such peptide pairs reflects the abundance ratio for the two proteins.
This example describes SILAC studies that were performed to compare the effects of three different HDAC inhibitors (Compound A, Compound B, and tubastatin A) to a control on a human multiple myeloma cell line. The HDAC inhibitors were also compared amongst themselves to determine differences in their effects.
A human myeloma cell line MM.1S was grown using either ^12C (light) or ^13C (heavy) lysine containing culture medium. The “heavy” cells were treated with DMSO as the control, and the “light” cells were treated with a single HDAC inhibitor at 37° C. for 6 hours. The heavy and light cells were lysed, and the lysates were mixed in 1:1 ratio and digested with the protease trypsin. The acetylated lysine containing peptides (due to the action of the HDAC inhibitor) in the digested peptide pool were captured by a non-specific anti-acetylated lysine antibody cocktail (the antibodies identify both light and heavy acetylated peptides), and subjected to mass spectrometry analysis in order to identify thousands of individual peptides.
Thousands of peptides were identified in pairs (^12C and ^13C) due to their known mass differences. The amino acid sequence and quantitative ratio (Light/Heavy) of a given peptide in two differentially treated cell lysates were then determined and annotated with their possible protein (gene) sources.
As stated above, three HDAC inhibitors (Compound A, Compound B, and Tubastatin A) were used. Thus, the SILAC method was performed three times, with a different HDAC inhibitor compared to a control each time. Accordingly, there are three pairs of quantitative data in the table below, i.e., Compound A:DMSO, Compound B:DMSO, and Tubastatin A:DMSO. A cut-off of 1.30 fold of change (increase or decrease) was then used to determine “changed” or “+” in the table, and any peptides with a fold of change less than 1.3 fold were determined to be “unchanged” or “0” in the table. Those peptides that were not identified were marked as “NA” in the table. […]

## CN1CCc2c(c3ccccc3n2Cc2ccc(C(=O)NO)cc2)C1 [Tub A]
ATAD3A [491], log 2 scale, drug vs DMSO
  L/H ratio of acetylated peptide MYFDK(ac)YVLKPATEGK (SEQ ID NO: 23): 0.62
ATP5H [117], log 2 scale, drug vs DMSO
  L/H ratio of acetylated peptide IVEYEK(ac)EMEK (SEQ ID NO: 24): 0.63
ATP5J2 [54], log 2 scale, drug vs DMSO
  L/H ratio of acetylated peptide YYNK(ac)YINVK (SEQ ID NO: 12): 0.66
ATP synthase subunit O mitochondrial [54], ATP50, drug:DMSO
  light to heavy ratio (L/H ratio) of acetylated peptide QNK(ac)LEQVEK (SEQ ID NO: 271): 0.45 log 2
ATP synthase subunit alpha mitochondrial [261], gene ATP5A1, inhibitor:DMSO
  light to heavy ratio (L/H ratio) of acetylated peptide STVAQLVK(ac)R (SEQ ID NO: 552): 0.00 log 2
ATP synthase subunit alpha mitochondrial [539], gene ATP5A1, inhibitor:DMSO
  light to heavy ratio (L/H ratio) of acetylated peptide ISEQSDAK(ac)LK (SEQ ID NO: 600): 0.00 log 2
ATP synthase subunit b mitochondrial [233], ATP5F1, drug:DMSO
  light to heavy ratio (L/H ratio) of acetylated peptide HVVQSISTQQEK(ac)ETIAK (SEQ ID NO: 307): 0.62 log 2
ATP synthase subunit g mitochondrial [66], ATP5L, drug:DMSO
  light to heavy ratio (L/H ratio) of acetylated peptide IVNSAQTGSFK(ac)QLTVK (SEQ ID NO: 279): 0.77 log 2
ATP synthase-coupling factor 6 mitochondrial [41], ATP5J, drug:DMSO
  light to heavy ratio (L/H ratio) of acetylated peptide ELDPIQK(ac)LFVDK (SEQ ID NO: 365): 0.00 log 2
ATP synthase-coupling factor 6 mitochondrial [99], ATP5J, drug:DMSO
  light to heavy ratio (L/H ratio) of acetylated peptide FEDPK(ac)FEVIEKPQA (SEQ ID NO: 325): 0.00 log 2
AVEEK(ac)IEWLESHQDADIEDFK (SEQ ID NO: 172), 78 kDa glucose-regulated protein [601], HSPA5
  light to heavy ratio (L/H ratio) of acetylated peptide, log 2 scale: −0.54
AVIWPQYVK(ac)DR (SEQ ID NO: 156), cDNA FLJ59630 highly similar to Growth hormone-inducible transmembrane protein [124], GHITM
  light to heavy ratio (L/H ratio) of acetylated peptide, log 2 scale: 0.47
AVK(ac)HAEELER (SEQ ID NO: 225), Isoform 2 of Signal recognition particle 68 kDa protein [164], SRP68
  light to heavy ratio (L/H ratio) of acetylated peptide, log 2 scale: −1.00
AYGGSMCAK(ac)CVR (SEQ ID NO: 204), 60S ribosomal protein L34 [85], RPL34
  light to heavy ratio (L/H ratio) of acetylated peptide, log 2 scale: 0.40
AYHLQK(ac)STCGK (SEQ ID NO: 443), 60S ribosomal protein L37 [31], RPL37
  L/H ratio of acetylated peptide: 0.00 log 2
Acyl-CoA dehydrogenase family member 9 mitochondrial [41], gene ACAD9, inhibitor:DMSO
  light to heavy ratio (L/H ratio) of acetylated peptide AFAK(ac)ELFLGK (SEQ ID NO: 627): 0.00 log 2
Alpha-soluble NSF attachment protein [203], NAPA, drug:DMSO
  light to heavy ratio (L/H ratio) of acetylated peptide YSAK(ac)DYFFK (SEQ ID NO: 319): 0.44 log 2
Annexin A6 [9], ANXA6, drug:DMSO
  light to heavy ratio (L/H ratio) of acetylated peptide PAQGAK(ac)YR (SEQ ID NO: 305): 0.39 log 2
Annexin A6 [299], ANXA6, drug:DMSO
  light to heavy ratio (L/H ratio) of acetylated peptide TKYEK(ac)SLYSMIK (SEQ ID NO: 270): 0.42 log 2
Annexin A6 [314], ANXA6, drug:DMSO
  light to heavy ratio (L/H ratio) of acetylated peptide NDTSGEYK(ac)K (SEQ ID NO: 285): 0.70 log 2
Annexin A6 [478], ANXA6, drug:DMSO
  light to heavy ratio (L/H ratio) of acetylated peptide AINEAYK(ac)EDYHK (SEQ ID NO: 282): 0.53 log 2
Annexin A6 [607], ANXA6, drug:DMSO
  light to heavy ratio (L/H ratio) of acetylated peptide NKPLFFADK(ac)LYK (SEQ ID NO: 298): 0.51 log 2
Annexin A6 [620], gene ANXA6, inhibitor:DMSO
  light to heavy ratio (L/H ratio) of acetylated peptide GAGTDEK(ac)TLTR (SEQ ID NO: 621): 0.00 log 2
Annexin A6 [644], gene ANXA6, drug:DMSO
  light to heavy ratio (L/H ratio), log 2 scale, acetylated peptide EFIEK(ac)YDK (SEQ ID NO: 779): 0.00
Aspartate aminotransferase mitochondrial [73], gene GOT2, inhibitor:DMSO
  light to heavy ratio (L/H ratio) of acetylated peptide DDNGK(ac)PYVLPSVR (SEQ ID NO: 579): 0.00 log 2
Branched-chain-amino-acid aminotransferase [337], gene BCAT2, inhibitor:DMSO
  light to heavy ratio (L/H ratio) of acetylated peptide ELK(ac)EIQYGIR (SEQ ID NO: 540): 0.00 log 2
Bromodomain and PHD finger-containing protein 3 [105], gene BRPF3, drug:DMSO
  light to heavy ratio (L/H ratio), log 2 scale, acetylated peptide ESCSK(ac)HASGTSFHLPQPSFR (SEQ ID NO: 780): 0.00
CALR [62], log 2 scale, drug vs DMSO
  L/H ratio of acetylated peptide FYGDEEK(ac)DKGLQTSQDAR (SEQ ID NO: 25): −0.97
CD59 glycoprotein [63], CD59, drug:DMSO
  light to heavy ratio (L/H ratio) of acetylated peptide AGLQVYNK(ac)CWK (SEQ ID NO: 260): −0.45 log 2
CLTC [637], log 2 scale, drug vs DMSO
  L/H ratio of acetylated peptide ALEHFTDLYDIK(ac)R (SEQ ID NO: 26): −0.62
COX4I1 [87], log 2 scale, drug vs DMSO
  L/H ratio of acetylated peptide FK(ac)ESFAEMNR (SEQ ID NO: 1): 0.52
CREBBP [1216], log 2 scale, drug vs DMSO
  L/H ratio of acetylated peptide […](ac)QLCTIPR (SEQ ID NO: 27): 0.60
CREBBP [1595:1597], log 2 scale, drug vs DMSO
  L/H ratio of acetylated peptide TNK(ac)NK(ac)SSISR (SEQ ID NO: 13): 0.64
CREM [240], log 2 scale, drug vs DMSO
  L/H ratio of acetylated peptide ALK(ac)DLYCHK (SEQ ID NO: 28): 0.43
CSNK2B [139], log 2 scale, drug vs DMSO
  L/H ratio of acetylated peptide LYCPK(ac)CMDVYTPK (SEQ ID NO: 29): −0.39
Calreticulin [55], CALR, drug:DMSO
  light to heavy ratio (L/H ratio) of acetylated peptide FVLSSGK(ac)FYGDEEKDK (SEQ ID NO: 281): −0.51 log 2
Calreticulin [151], CALR, drug:DMSO
  light to heavy ratio (L/H ratio) of acetylated peptide VHVIFNYK(ac)GK (SEQ ID NO: 273): −0.58 log 2
Calreticulin [159], CALR, drug:DMSO
  light to heavy ratio (L/H ratio) of acetylated peptide NVLINK(ac)DIR (SEQ ID NO: 257): −0.88 log 2
Cation-dependent mannose-6-phosphate receptor [38], M6PR, drug:DMSO
  light to heavy ratio (L/H ratio) of acetylated peptide TCDLVGEK(ac)GK (SEQ ID NO: 289): −0.81 log 2
Citrate synthase mitochondrial [366], gene CS, inhibitor:DMSO
  light to heavy ratio (L/H ratio) of acetylated peptide EFALK(ac)HLPNDPMFK (SEQ ID NO: 583): 0.00 log 2
Cofilin-1 [121], gene CFL1, drug:DMSO
  light to heavy ratio (L/H ratio), log 2 scale, acetylated peptide MIYASSK(ac)DAIKK (SEQ ID NO: 763): 0.00
Coiled-coil-helix-coiled-coil-helix domain-containing protein 3 mitochondrial [173], CHCHD3, drug:DMSO
  light to heavy ratio (L/H ratio) of acetylated peptide AAEEVEAK(ac)FK (SEQ ID NO: 328): 0.00 log 2
Conserved hypothetical protein [484], gene KIAA0947, inhibitor:DMSO
  light to heavy ratio (L/H ratio) of acetylated peptide ASEIGEK(ac)YR (SEQ ID NO: 586): 0.00 log 2
Cytochrome b-c1 complex subunit 6 mitochondrial [85], gene UQCRH, inhibitor:DMSO
  light to heavy ratio (L/H ratio) of acetylated peptide DHCVAHK(ac)LFNNLK (SEQ ID NO: 608): 0.00 log 2
